The source of these data is patent publication US5596008A, “3,4-Diaryl substituted pyridines for the treatment of inflammation” (G. D. Searle & Co., priority 1995, dated 1997).

Where two headings read alike, the source gives them in different places.

In one test the target is T1, COX-1 murine (Mus musculus, UniProt P22437).
T1 construct: A 2.0 kb fragment containing the coding region of either human or murine COX-1; made in house; host or cells: SF9 insect cells (recombinant baculovirus, vector pVL1393)
T1 sequence (P22437 27-602): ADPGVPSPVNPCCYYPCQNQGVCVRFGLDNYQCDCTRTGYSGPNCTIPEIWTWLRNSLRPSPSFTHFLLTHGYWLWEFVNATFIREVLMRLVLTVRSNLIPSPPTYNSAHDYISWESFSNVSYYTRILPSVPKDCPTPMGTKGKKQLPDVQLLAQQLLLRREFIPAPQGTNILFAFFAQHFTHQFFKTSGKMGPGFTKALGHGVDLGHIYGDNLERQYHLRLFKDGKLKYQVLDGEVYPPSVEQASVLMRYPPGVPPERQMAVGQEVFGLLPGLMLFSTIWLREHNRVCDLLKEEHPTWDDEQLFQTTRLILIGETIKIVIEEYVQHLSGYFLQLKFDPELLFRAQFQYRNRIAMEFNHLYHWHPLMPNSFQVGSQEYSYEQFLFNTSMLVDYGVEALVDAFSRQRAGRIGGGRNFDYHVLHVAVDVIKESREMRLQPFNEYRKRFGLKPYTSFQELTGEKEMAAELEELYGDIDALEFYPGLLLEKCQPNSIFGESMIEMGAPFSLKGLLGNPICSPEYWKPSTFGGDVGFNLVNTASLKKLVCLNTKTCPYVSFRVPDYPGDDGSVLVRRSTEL
Put plainly: COX-1 activity in vitro (recombinant enzyme, PGE2 ELISA). Type of test: biochemical. The conditions noted are these: arachidonic acid 10 μM, pH 8.0, pre-incubation 10-20 min, read-out: COX-1 murine ID50. Here is the method: (§1) Evaluation of COX-1 and COX-2 activity in vitro
(§2) The COX-2 inhibition activity of the compounds of this invention illustrated in the Examples was determined by the following methods.
(§3) a. Preparation of recombinant COX baculoviruses
(§4) Recombinant COX-1 and COX-2 were prepared as described by Gierse et al, [J. Biochem., 305, 479-84 (1995)]. A 2.0 kb fragment containing the coding region of either human or murine COX-1 or human or murine COX-2 was cloned into a BamH1 site of the baculovirus transfer vector pVL1393 (Invitrogen) to generate the baculovirus transfer vectors for COX-1 and COX-2 in a manner similar to the method of D. R. O'Reilly et al (Baculovirus Expression Vectors: A Laboratory Manual (1992)). Recombinant baculoviruses were isolated by transfecting 4 μg of baculovirus transfer vector DNA into SF9 insect cells (2×10^8) along with 200 ng of linearized baculovirus plasmid DNA by the calcium phosphate method. See M. D. Summers and G. E. Smith, A Manual of Methods for Baculovirus Vectors and Insect Cell Culture Procedures, Texas Agric. Exp. Station Bull. 1555 (1987). Recombinant viruses were purified by three rounds of plaque purification and high titer (10^7 -10^8 pfu/ml) stocks of virus were prepared. For large scale production, SF9 insect cells were infected in 10 liter fermentors (0.5×10^6 /ml) with the recombinant baculovirus stock such that the multiplicity of infection was 0.1. After 72 hours the cells were centrifuged and the cell pellet homogenized in Tris/Sucrose (50 mM: 25%, pH 8.0) containing 1% 3-[(3-cholamidopropyl)dimethylammonio]-1-propanesulfonate (CHAPS). The homogenate was centrifuged at 10,000×G for 30 minutes, and the resultant supernatant was stored at -80° C. before being assayed for COX activity.
(§5) b. Assay for COX-1 and COX-2 activity:
(§6) COX activity was assayed as PGE2 formed/μg protein/time using an ELISA to detect the prostaglandin released. CHAPS-solubilized insect cell membranes containing the appropriate COX enzyme were incubated in a potassium phosphate buffer (50 mM, pH 8.0) containing epinephrine, phenol, and heme with the addition of arachidonic acid (10 μM). Compounds were pre-incubated with the enzyme for 10-20 minutes prior to the addition of arachidonic acid. Any reaction between the arachidonic acid and the enzyme was stopped after ten minutes at 37° C./room temperature by transferring 40 μl of reaction mix into 160 μl ELISA buffer and 25 μM indomethacin. The PGE2 formed was measured by standard ELISA technology (Cayman Chemical).
Background: An ELISA detects its analyte on a solid surface through an enzyme-linked reagent.

For the next test, the target named is T2, COX-2 murine (Mus musculus, UniProt Q05769).
T2 construct: human or murine COX-2 was cloned into a BamH1 site of the baculovirus transfer vector pVL1393; made in house; host or cells: SF9 insect cells (recombinant baculovirus, vector pVL1393)
T2 sequence (Q05769 18-604): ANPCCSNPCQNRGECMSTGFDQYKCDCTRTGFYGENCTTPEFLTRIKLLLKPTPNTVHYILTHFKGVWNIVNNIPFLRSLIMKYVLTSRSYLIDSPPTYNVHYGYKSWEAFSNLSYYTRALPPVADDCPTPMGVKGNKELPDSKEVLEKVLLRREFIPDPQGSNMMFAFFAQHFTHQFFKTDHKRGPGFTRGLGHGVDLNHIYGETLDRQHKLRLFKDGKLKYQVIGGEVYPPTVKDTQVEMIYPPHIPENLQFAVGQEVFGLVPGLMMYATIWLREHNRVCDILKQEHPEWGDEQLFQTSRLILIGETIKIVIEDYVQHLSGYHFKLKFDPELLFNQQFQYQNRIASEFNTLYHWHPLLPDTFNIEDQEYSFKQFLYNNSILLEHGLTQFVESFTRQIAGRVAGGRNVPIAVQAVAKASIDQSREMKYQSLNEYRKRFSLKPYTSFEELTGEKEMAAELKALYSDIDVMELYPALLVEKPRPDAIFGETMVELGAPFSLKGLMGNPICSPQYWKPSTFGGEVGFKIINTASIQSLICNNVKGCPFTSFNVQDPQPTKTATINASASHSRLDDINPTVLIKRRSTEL
Put plainly: COX-2 activity in vitro (recombinant enzyme, PGE2 ELISA). Type of test: biochemical. Here is the method: as §1, §2, §3, §4, §5, §6

The mark [1] stands for this setting: COX-2 murine, arachidonic acid 10 μM, pH 8.0, pre-incubation 10-20 min, read-out: COX-2 murine ID50.

With `COc1cc(-c2ccc(S(C)(=O)=O)cc2)c(-c2ccc(F)cc2)c(C(F)(F)F)n1` [Example 1, 5-(4-Fluorophenyl)-2-methoxy-4-[4-(methylsulfonyl)phenyl]-6-(trifluoromethyl)pyridine], the IC50 is 300 nM on COX-1 murine and above 30 µM at COX-2 murine (setting [1]).
Regarding `CCOc1cc(-c2ccc(S(C)(=O)=O)cc2)c(-c2ccc(F)cc2)c(C(F)(F)F)n1` [Example 2, 2-Ethoxy-5-(4-fluorophenyl)-4-[4-(methylsulfonyl)phenyl]-6-(trifluoromethyl)pyridine], the results for the IC50 at COX-1 murine and on COX-2 murine (setting [1]) were 300 nM and above 30 µM, respectively.
For `C#CCOc1cc(-c2ccc(S(C)(=O)=O)cc2)c(-c2ccc(F)cc2)c(C(F)(F)F)n1` [Example 3, 5-(4-Fluorophenyl)-4-[4-(methylsulfonyl)phenyl]-2-(2-propynyloxy)-6-(trifluoromethyl)pyridine], the results for the IC50 at COX-1 murine and on COX-2 murine were 200 nM and above 30 µM, respectively.
For the compound `CS(=O)(=O)c1ccc(-c2cc(Br)nc(C(F)(F)F)c2-c2ccc(F)cc2)cc1` [Example 4, 2-Bromo-5-(4-fluorophenyl)-4-[4-(methylsulfonyl)phenyl]-6-(trifluoromethyl)pyridine], the results for the IC50 on COX-1 murine and at COX-2 murine (setting [1]) were 600 nM and above 100 µM, respectively.
